Results published in BindingDB's records for doi:10.1124/jpet.102.046797 (University of Maryland, 2003).
pKi: −log10 of the molar value.

Each compound was assayed against T1, Gamma-hydroxybutyrate receptor (Rattus norvegicus, UniProt Q6RY99).
T1 sequence (Q6RY99 whole entry): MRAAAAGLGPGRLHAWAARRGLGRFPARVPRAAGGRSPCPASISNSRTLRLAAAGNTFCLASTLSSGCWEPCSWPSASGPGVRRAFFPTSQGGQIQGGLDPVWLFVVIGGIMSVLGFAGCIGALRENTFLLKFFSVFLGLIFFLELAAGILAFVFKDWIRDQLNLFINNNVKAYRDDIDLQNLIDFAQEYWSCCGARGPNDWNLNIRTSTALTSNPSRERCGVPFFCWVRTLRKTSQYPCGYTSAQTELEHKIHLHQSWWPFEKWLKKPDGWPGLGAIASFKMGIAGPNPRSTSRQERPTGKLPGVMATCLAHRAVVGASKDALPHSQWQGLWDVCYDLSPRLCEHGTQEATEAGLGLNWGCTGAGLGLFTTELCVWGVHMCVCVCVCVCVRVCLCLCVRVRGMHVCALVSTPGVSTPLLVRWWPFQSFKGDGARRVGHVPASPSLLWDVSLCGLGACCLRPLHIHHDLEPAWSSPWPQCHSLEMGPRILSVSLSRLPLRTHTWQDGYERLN

Compared with `O=C(O)/C=C1/CCCc2ccccc2C1O` (centres undefined) [CAS_131413], `CC(C)(O)CCCC(=O)O` [UMB75] is lower in pKi: 5.74 for the first, < 5.00 for the second. The first binds more tightly here.

`O=C(O)CCCCO` [UMB58] and `CC(C)(O)CCC(=O)O` [UMB68] cannot be ordered by pKi: < 5.00 for the first, < 5.00 for the second.
